Reference: patent US20240317721A1, “PYRAZOLYL DERIVATIVES AS INHIBITORS OF THE KRAS MUTANT PROTEIN” (NOVARTIS AG, priority 2021, published 2024)

Target: KRasG12C (M1-K169, biotinylated on the N-terminus) (Homo sapiens (Human), UniProt P01116, G12C)
Assay: Covalent competition assay: scintillation proximity assay (SPA) quantifying covalent modification of KRASG12C
Type: binding
Conditions: competition with radiolabeled covalent probe (Compound B/Compound A), 2 hours incubation, 10 nM KRasG12C
In short: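 Scintillation proximity readout after streptavidin bead capture (30 min) of biotinylated KRasG12C(M1-K169):GDP, 10 nM final, which was covalently labelled over 2 h by 25 nM radio-probe plus 475 nM cold probe unless blocked by compound.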

Row | Compound | IC50 [nM]
1 | C=CC(=O)N1CC2(CC(n3nc(N4CCn5nccc5C4C)c(-c4c(Cl)c(C)cc5[nH]ncc45)c3C)C2)C1 (single isomer, unassigned) [Example 42a, 1-(6-(4-(5-chloro-6-methyl-1H-indazol-4-yl)-5-methyl-3-(4-methyl-6,7-dihydropyrazolo[1,5-a]pyrazin-5(4H)-yl)-1H-pyrazol-1-yl)-2-azaspiro[3.3]heptan-2-yl)prop-2-en-1-one] | > 50000
2 | C=CC(=O)N1CC2(CC(n3nc(N4CCN(C5CCOCC5)C[C@]4(C)CCOC)c(-c4c(Cl)c(C)cc5[nH]ncc45)c3C)C2)C1 (single isomer, unassigned) [Example 87b] | 1500
3 | C=CC(=O)N1CC2(CC(n3nc(N4CCC(CN5CC6CC(C5)O6)CC4(C)C)c(-c4c(Cl)c(Cl)cc5[nH]ncc45)c3C)C2)C1 (single isomer, unassigned) [Example 228a, 1-(6-(3-(4-((6-oxa-3-azabicyclo[3.1.1]heptan-3-yl)methyl)-2,2-dimethylpiperidin-1-yl)-4-(5,6-dichloro-1H-indazol-4-yl)-5-methyl-1H-pyrazol-1-yl)-2-azaspiro[3.3]heptan-2-yl)prop-2-en-1-one] | > 5000
4 | C=CC(=O)N1CC2(CC(n3nc(N4CC[C@@H](CN(C5COC5)C5COC5)CC4(C)C)c(-c4c(Cl)c(Cl)cc5[nH]ncc45)c3C)C2)C1 (single isomer, unassigned) [Example 282a] | 1500
5 | C=CC(=O)N1CC2(CC(n3nc(N4CCCCC4(C)C)c(-c4c(Cl)c(C)cc5[nH]ncc45)c3C)C2)C1 (single isomer, unassigned) [Example 103b, 1-(6-(4-(5-chloro-6-methyl-1H-indazol-4-yl)-3-(2,2-dimethylpiperidin-1-yl)-5-methyl-1H-pyrazol-1-yl)-2-azaspiro[3.3]heptan-2-yl)prop-2-en-1-one] | 315
6 | C=CC(=O)N1CC2(CC(n3nc(N4CCC(CN5CC6CC(C5)O6)CC4(C)C)c(-c4c(Cl)c(Cl)cc5[nH]ncc45)c3C)C2)C1 (single isomer, unassigned) [Example 229a, 1-(6-(3-(4-((6-oxa-3-azabicyclo[3.1.1]heptan-3-yl)methyl)-2,2-dimethylpiperidin-1-yl)-4-(5,6-dichloro-1H-indazol-4-yl)-5-methyl-1H-pyrazol-1-yl)-2-azaspiro[3.3]heptan-2-yl)prop-2-en-1-one] | > 5000
7 | C=CC(=O)N1CC2(CC(n3nc(N4CCCCC4(C)C)c(-c4c(Cl)c(C)cc5[nH]ncc45)c3C)C2)C1 (single isomer, unassigned) [Example 103a, 1-(6-(4-(5-chloro-6-methyl-1H-indazol-4-yl)-3-(2,2-dimethylpiperidin-1-yl)-5-methyl-1H-pyrazol-1-yl)-2-azaspiro[3.3]heptan-2-yl)prop-2-en-1-one] | > 5000
8 | C=CC(=O)N1CC2(CC(n3nc(N4CCC(CN5CCN(C)C(=O)C5)CC4(C)C)c(-c4c(Cl)c(Cl)cc5[nH]ncc45)c3C)C2)C1 (single isomer, unassigned) [Example 239a, 4-((1-(1-(2-acryloyl-2-azaspiro[3.3]heptan-6-yl)-4-(5,6-dichloro-1H-indazol-4-yl)-5-methyl-1H-pyrazol-3-yl)-2,2-dimethylpiperidin-4-yl)methyl)-1-methylpiperazin-2-one] | 1600
9 | C=CC(=O)N1CC2(CC(n3nc(N4CCc5nn(C)c(=O)cc5C4)c(-c4c(Cl)c(C)cc5[nH]ncc45)c3C)C2)C1 (single isomer, unassigned) [Example 40a, 6-(1-(2-acryloyl-2-azaspiro[3.3]heptan-6-yl)-4-(5-chloro-6-methyl-1H-indazol-4-yl)-5-methyl-1H-pyrazol-3-yl)-2-methyl-5,6,7,8-tetrahydropyrido[4,3-c]pyridazin-3(2H)-one] | > 50000
10 | C=CC(=O)N1CC2(CC(n3nc(N4CCN(C[C@@H]5COCCO5)C[C@]4(C)COC)c(-c4c(Cl)c(Cl)cc5[nH]ncc45)c3C)C2)C1 (single isomer, unassigned) [Example 182b] | 8
11 | C=CC(=O)N1CC2(CC(n3nc(N4CCC(N(C)C5COC5)CC45CCC5)c(-c4c(Cl)c(C)cc5[nH]ncc45)c3C)C2)C1 (single isomer, unassigned) [Example 51b, 1-(6-(4-(5-chloro-6-methyl-1H-indazol-4-yl)-5-methyl-3-(8-(methyl(oxetan-3-yl)amino)-5-azaspiro[3.5]nonan-5-yl)-1H-pyrazol-1-yl)-2-azaspiro[3.3]heptan-2-yl)prop-2-en-1-one] | 668
12 | C=CC(=O)N1CC2(CC(n3nc(N4CCN(C5COC5)C[C@@]4(C)CC)c(-c4c(Cl)c(C)cc5[nH]ncc45)c3C)C2)C1 (single isomer, unassigned) [Example 143b] | 39
13 | C=CC(=O)N1CC2(CC(n3nc(N4CCOCC4(C)C)c(-c4c(Cl)c(C)cc5[nH]ncc45)c3C)C2)C1 (single isomer, unassigned) [Example 22b, 1-(6-(4-(5-chloro-6-methyl-1H-indazol-4-yl)-3-(3,3-dimethylmorpholino)-5-methyl-1H-pyrazol-1-yl)-2-azaspiro[3.3]heptan-2-yl)prop-2-en-1-one] | 113
14 | C=CC(=O)N1CC2(CC(n3nc(N4CC[C@@H](CN5CC(O)C(OC)C5)CC4(C)C)c(-c4c(Cl)c(Cl)cc5[nH]ncc45)c3C)C2)C1 (single isomer, unassigned) [Example 274b, 1-(6-(4-(5,6-dichloro-1H-indazol-4-yl)-3-((R)-4-(((3S*,4S*)-3-hydroxy-4-methoxypyrrolidin-1-yl)methyl)-2,2-dimethylpiperidin-1-yl)-5-methyl-1H-pyrazol-1-yl)-2-azaspiro[3.3]heptan-2-yl)prop-2-en-1-one] | 8
15 | Cc1cc2[nH]ncc2c(-c2c(N3CCN(C4COC4)CC34CCC4)nn(C3CC4(C3)CN(C(=O)/C=C/CF)C4)c2C)c1Cl (single isomer, unassigned) [Example 113a, (E)-1-(6-(4-(5-chloro-6-methyl-1H-indazol-4-yl)-5-methyl-3-(8-(oxetan-3-yl)-5,8-diazaspiro[3.5]nonan-5-yl)-1H-pyrazol-1-yl)-2-azaspiro[3.3]heptan-2-yl)-4-fluorobut-2-en-1-one] | > 5000
16 | C=CC(=O)N1CC2(CC(n3nc(N4CCN(C(C)=O)CC4)c(-c4c(Cl)ccc5[nH]ncc45)c3C)C2)C1 (single isomer, unassigned) [Example 36a, 1-(6-(3-(4-acetylpiperazin-1-yl)-4-(5-chloro-1H-indazol-4-yl)-5-methyl-1H-pyrazol-1-yl)-2-azaspiro[3.3]heptan-2-yl)prop-2-en-1-one] | 24400
17 | C=CC(=O)N1CC2(CC(n3nc(N4CCC5(CC4)CN(C(C)=O)CCO5)c(-c4c(Cl)c(C)cc5[nH]ncc45)c3C)C2)C1 (single isomer, unassigned) [Example 26b, 1-(6-(3-(4-acetyl-1-oxa-4,9-diazaspiro [5.5]undecan-9-yl)-4-(5-chloro-6-methyl-1H-indazol-4-yl)-5-methyl-1H-pyrazol-1-yl)-2-azaspiro[3.3]heptan-2-yl)prop-2-en-1-one] | 110
18 | C=CC(=O)N1CC2(CC(n3nc(N4CCC(N5C[C@H](OC)[C@H](OC)C5)CC4(C)C)c(-c4c(Cl)c(C)cc5[nH]ncc45)c3C)C2)C1 (single isomer, unassigned) [Example 102a] | > 5000
19 | C=CC(=O)N1CC2(CC(n3nc(N4CCN(C[C@@H]5COCCO5)C[C@]4(C)CC)c(-c4c(Cl)c(C)cc5c4cnn5C)c3C)C2)C1 (single isomer, unassigned) [Example 109b] | > 5000
20 | C=CC(=O)N1CC2(CC(n3nc(N4CCN(C5COC5)C[C@@]4(C)COC)c(-c4c(Cl)c(C)cc5[nH]ncc45)c3C)C2)C1 (single isomer, unassigned) [Example 148a] | > 5000
21 | C=CC(=O)N1CC2(CC(n3nc(N4CCC5C(CC(=O)N5C)C4)c(-c4c(Cl)c(C)cc5[nH]ncc45)c3C)C2)C1 (single isomer, unassigned) [Example 39a, 5-(1-(2-acryloyl-2-azaspiro[3.3]heptan-6-yl)-4-(5-chloro-6-methyl-1H-indazol-4-yl)-5-methyl-1H-pyrazol-3-yl)-1-methyloctahydro-2H-pyrrolo[3,2-c]pyridin-2-one] | 42100
22 | C=CC(=O)N1CC2(CC(n3nc(N4CCCC4(C)C)c(-c4c(Cl)c(C)cc5[nH]ncc45)c3C)C2)C1 (single isomer, unassigned) [Example 88a, 1-(6-(4-(5-chloro-6-methyl-1H-indazol-4-yl)-3-(2,2-dimethylpyrrolidin-1-yl)-5-methyl-1H-pyrazol-1-yl)-2-azaspiro[3.3]heptan-2-yl)prop-2-en-1-one] | > 5000
23 | C=CC(=O)N1CC2(CC(n3nc(N4CCN(C5CCOCC5)C[C@]4(C)C(F)F)c(-c4c(Cl)c(C)cc5[nH]ncc45)c3C)C2)C1 (single isomer, unassigned) [Example 151a] | 46
24 | C=CC(=O)N1CC2(CC(n3nc(N4CC[C@@H](CN5CC6(C5)CN(C)C(=O)N6C)CC4(C)C)c(-c4c(Cl)c(Cl)cc5[nH]ncc45)c3C)C2)C1 (single isomer, unassigned) [Example 296b] | 6
25 | C=CC(=O)N1CC2(CC(n3nc(N4CCN(C(C)=O)C[C@@H]4CC)c(-c4c(Cl)c(C)cc5[nH]ncc45)c3C)C2)C1 (single isomer, unassigned) [Example 94a] | > 50000
26 | C=CC(=O)N1CC2(CC(n3nc(N4CCN(C(C)=O)C[C@@H]4CC)c(-c4c(Cl)c(C)cc5[nH]ncc45)c3C)C2)C1 (single isomer, unassigned) [Example 94b] | 64
27 | C=CC(=O)N1CC2(CC(n3nc(N4CCC(O)(CN5CCOCC5)CC4(C)C)c(-c4c(Cl)c(Cl)cc5[nH]ncc45)c3C)C2)C1 (single isomer, unassigned) [Example 237a, 1-(6-(4-(5,6-dichloro-1H-indazol-4-yl)-3-(4-hydroxy-2,2-dimethyl-4-(morpholinomethyl)piperidin-1-yl)-5-methyl-1H-pyrazol-1-yl)-2-azaspiro[3.3]heptan-2-yl)prop-2-en-1-one] | > 5000
